Experimental data: ChEMBL document CHEMBL1129106, “The development of non-steroidal dual inhibitors of both human 5-reductase isozymes” (Bioorg Med Chem Lett, 1996)

Columns and labels:
[1] = molecular target: T1, 3-oxo-5-alpha-steroid 4-dehydrogenase 2 (Homo sapiens) (UniProt P31213); assay: Compound was tested in vitro for its inhibitory activity against human 5Alpha-R2 expressed as potency.
T1 sequence (whole entry): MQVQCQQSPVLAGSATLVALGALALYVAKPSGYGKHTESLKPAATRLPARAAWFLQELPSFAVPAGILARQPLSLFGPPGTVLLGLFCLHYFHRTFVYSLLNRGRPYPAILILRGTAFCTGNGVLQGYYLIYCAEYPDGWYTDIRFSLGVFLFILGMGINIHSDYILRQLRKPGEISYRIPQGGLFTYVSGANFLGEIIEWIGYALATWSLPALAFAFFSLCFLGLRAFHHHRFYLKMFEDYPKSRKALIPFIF

[2] = molecular target: T2, 3-oxo-5-alpha-steroid 4-dehydrogenase 1 (Homo sapiens) (UniProt P18405); assay: Compound was tested in vitro for its inhibitory activity against human 5Alpha-R1 expressed as potency.
T2 sequence (whole entry): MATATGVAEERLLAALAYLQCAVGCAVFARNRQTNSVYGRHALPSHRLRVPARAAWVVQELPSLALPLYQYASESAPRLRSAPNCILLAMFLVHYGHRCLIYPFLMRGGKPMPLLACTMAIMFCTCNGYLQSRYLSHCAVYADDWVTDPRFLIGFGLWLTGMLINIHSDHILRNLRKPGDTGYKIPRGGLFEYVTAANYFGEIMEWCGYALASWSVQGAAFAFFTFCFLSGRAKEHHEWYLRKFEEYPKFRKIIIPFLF

[3] = molecular target: Steroid 5-alpha-reductase (Rattus norvegicus) (UniProt P24008+P31214); assay: Compound was tested in vitro for its inhibitory activity against rat 5Alpha-R expressed as potency; format: protein assay
Chain of Steroid 5-alpha-reductase (Rattus norvegicus) (P24008 whole entry, looked up): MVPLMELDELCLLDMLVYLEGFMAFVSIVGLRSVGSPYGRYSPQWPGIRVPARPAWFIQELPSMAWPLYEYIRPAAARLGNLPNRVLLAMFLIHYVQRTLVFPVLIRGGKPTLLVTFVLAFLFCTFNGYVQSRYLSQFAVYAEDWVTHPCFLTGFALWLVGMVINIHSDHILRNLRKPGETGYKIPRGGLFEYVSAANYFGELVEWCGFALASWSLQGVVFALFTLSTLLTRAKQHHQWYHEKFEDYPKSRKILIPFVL
Chain of Steroid 5-alpha-reductase (Rattus norvegicus) (P31214 whole entry, looked up): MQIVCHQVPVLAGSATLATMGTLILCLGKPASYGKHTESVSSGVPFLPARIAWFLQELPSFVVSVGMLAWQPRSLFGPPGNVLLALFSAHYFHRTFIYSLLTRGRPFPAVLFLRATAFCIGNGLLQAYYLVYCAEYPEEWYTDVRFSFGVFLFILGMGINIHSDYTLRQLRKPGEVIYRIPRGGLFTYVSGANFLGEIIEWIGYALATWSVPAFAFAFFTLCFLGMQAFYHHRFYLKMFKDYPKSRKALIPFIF

[4] = Oral bioavailability in rat; format: ADME, organism-based; conditions: in vivo
[5] = Volume of distribution in dog; format: ADME, organism-based, Canis lupus familiaris; conditions: in vivo
[6] = Volume of distribution in rat.; format: ADME, organism-based; conditions: in vivo
[7] = Plasma clearance in dog; format: ADME, organism-based, Canis lupus familiaris
[8] = Oral bioavailability in dog; format: ADME, organism-based, Canis lupus familiaris; conditions: in vivo
[9] = Plasma clearance in rat.; format: ADME, organism-based
[10] = Half-life in rat plasma; format: ADME, organism-based

Structure (SMILES) | Potency [1] [nM] | Potency [2] [nM] | Potency [3] [nM] | bioavailability [4] [%] | Vd [5] [L/kg] | Vd [6] [L/kg] | clearance [7] [mL/min/kg] | bioavailability [8] [%] | clearance [9] [mL/min/kg] | half-life [10] [h]
Cc1c(O[C@@H](C)c2ccc(CC(C)C)cc2)ccc(C(=O)Nc2ccccc2OCCCC(=O)O)c1C | 256 | – | – | – | – | – | – | – | – | –
CC(C)Cc1ccc([C@]2(C)Oc3ccc(C(=O)c4cn(CCCC(=O)O)c5ccccc45)cc3O2)cc1 | 23 | 25 | 9 | – | – | – | – | – | – | –
CC(C)Cc1ccc([C@@H](C)Oc2ccc(C(=O)c3cn(CCCC(=O)O)c4ccccc34)cc2)cc1 | 69 | 574 | 30 | – | – | – | – | – | – | –
CC(C)Cc1ccc(C(C)Oc2ccc(C(=O)N3CC(CCCC(=O)O)c4ccccc43)cc2)cc1 (stereo unspecified) | 481 | 113 | 24 | – | – | – | – | – | – | –
CC(C)Cc1ccc([C@H](C)Oc2ccc(C(=O)c3cn(CCCC(=O)O)c4ccccc34)cc2)cc1 | 4 | 40 | 1 | 56 | 0.9 | 3.6 | 2.4 | 86 | 11 | 3.7
CCCc1ccc(OC(C)c2ccc(C(=O)c3cn(CCCC(=O)O)c4ccccc34)cc2)cc1 (stereo unspecified) | 10 | 8 | 5 | – | – | – | – | – | – | –
O=C(O)CCCn1cc(C(=O)c2ccc3c(c2)OC(c2ccccc2)(c2ccccc2)O3)c2ccccc21 | 34 | 23 | 3 | – | – | – | – | – | – | –
